This note sets out measurements from US11707462B2, “Checkpoint kinase 1 (CHK1) inhibitors and uses thereof” (Boundless Bio, Inc., priority 2021, dated 2023).

Broadly, the IC50 is the concentration needed to halve the response being measured. A high value points to a need for much substance.

The structures appear in SMILES notation.

The assay addresses T1, Full-length human Chk1 protein (Homo sapiens, UniProt O14757).
T1 construct: purchased Carna Biosciences, Inc. 02-117
T1 sequence (O14757 1-476): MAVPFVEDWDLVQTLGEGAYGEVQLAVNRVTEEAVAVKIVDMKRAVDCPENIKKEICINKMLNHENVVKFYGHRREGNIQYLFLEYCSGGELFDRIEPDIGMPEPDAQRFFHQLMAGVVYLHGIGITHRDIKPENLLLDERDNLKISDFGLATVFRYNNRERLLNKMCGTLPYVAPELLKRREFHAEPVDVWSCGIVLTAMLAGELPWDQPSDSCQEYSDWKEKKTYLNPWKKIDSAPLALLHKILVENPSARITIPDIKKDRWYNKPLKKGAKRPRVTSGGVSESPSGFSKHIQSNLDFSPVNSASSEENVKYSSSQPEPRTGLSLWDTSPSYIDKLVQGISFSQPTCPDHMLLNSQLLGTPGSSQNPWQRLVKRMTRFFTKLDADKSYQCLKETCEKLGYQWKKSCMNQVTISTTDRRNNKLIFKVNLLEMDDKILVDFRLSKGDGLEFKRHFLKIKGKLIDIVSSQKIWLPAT
As to the kind of experiment: Kinase HTRF biochemical assay (HTRF KinEASE), Chk1 enzyme activity. As to conditions: full-length human Chk1, ATP 1 mM, 60 minutes at room temperature. The protocol:
Example A: Kinase HTRF Biochemical Assay
Chk1 enzyme activity was measured using an HTRF KinEASE assay (Cisbio, catalog no. 62ST1PEC). Full-length human Chk1 protein (GenBank accession number NP_001265.1) was obtained from Carna Biosciences, Inc. (Kobe, Japan, catalog no. 02-117). The enzyme reaction was carried out in assay buffer containing (final concentrations): Chk1 enzyme (0.012 ng/μL), MgCl2 (5 mM) and DTT (1 mM). To determine compound dose response, DMSO stock solutions were serially diluted in a 10-point concentration series in duplicate. Compound solution (50 nL) was added to 384-well assay plates (Greiner, catalog no. 784075). To each well containing compound solution was added assay buffer solution (5 μL). Plates were centrifuged at 1000 rpm for 1 minute, then incubated at room temperature for 10 minutes. The reaction was started by addition of substrate buffer (5 μL/well) containing (final concentrations): STK substrate 1-biotin (120 nM) and ATP (1 mM). Assay plates were centrifuged at 1000 rpm for 1 minute, then incubated at room temperature for 60 minutes. The reaction was stopped by addition of detection buffer (Cisbio, 10 μL) containing (final concentrations): STK antibody-cryptate (0.25 nM) and streptavidin-XL665 (7.5 nM). Plates were centrifuged at 1000 rpm for 1 minute, then incubated at 25° C. for 2 hours. HTRF signal was read on an EnVision multimode plate reader […] in HTRF mode. Data were fit to dose-response curves using XLfit (IDBS, Surrey, UK) or Prism (GraphPad Software, La Jolla, Calif., US) to calculate IC50 values for each compound tested.
(In general: In TR-FRET formats the signal depends on donor and acceptor labels being close together.)

As for `N#Cc1cnc(Nc2cc(-c3ccccc3OC3CC4(CC(N)C4)C3)[nH]n2)cn1` (stereo not drawn) [Example 1-54, 5-((5-(2-((6-aminospiro[3.3]heptan-2-yl)oxy)phenyl)-1H-pyrazol-3-yl)amino)pyrazine-2-carbonitrile], the IC50 lay within 10 to 100 nM.
The result for `COc1ccc(Cl)c(O[C@@H]2CC[C@H](N)C2)c1-c1cc(Nc2cnc(C#N)cn2)n[nH]1` [Example 4-4, 5-((5-(2-(((1R,3S)-3-aminocyclopentyl)oxy)-3-chloro-6-methoxyphenyl)-1H-pyrazol-3-yl)amino)pyrazine-2-carbonitrile] reads 100 to 500 nM; that for `CC(C)Oc1cccc(O[C@H]2C[C@H](N)C2)c1-c1cc(Nc2cnc(C#N)cn2)n[nH]1` [Example 1-15, 5-((5-(2-((1r,3r)-3-aminocyclobutoxy)-6-isopropoxyphenyl)-1H-pyrazol-3-yl)amino)pyrazine-2-carbonitrile], 100 to 500 nM.
With `COc1cccc(O[C@H]2CC[C@H](N)C2)c1-c1cc(Nc2cnc(C#N)cn2)n[nH]1` [Example 1-6, 5-((5-(2-(((1S,3S)-3-aminocyclopentyl)oxy)-6-methoxyphenyl)-1H-pyrazol-3-yl)amino)pyrazine-2-carbonitrile], the IC50 was above 1000 nM.
Next, `N#Cc1cnc(Nc2cc(-c3c(OCC4CC4)cccc3O[C@H]3CC[C@H](N)CC3)[nH]n2)cn1` [Example 1-31, 5-((5-(2-(((1r,4r)-4-aminocyclohexyl)oxy)-6-(cyclopropylmethoxy)phenyl)-1H-pyrazol-3-yl)amino)pyrazine-2-carbonitrile]: 100 to 500 nM; `N#Cc1cnc(Nc2cc(-c3c(F)cccc3O[C@@H]3CCCC[C@@H](N)C3)[nH]n2)cn1` [Example 3-37, 5-((5-(2-(((1R,3R)-3-aminocycloheptyl)oxy)-6-fluorophenyl)-1H-pyrazol-3-yl)amino)pyrazine-2-carbonitrile]: 10 to 100 nM.
The result for `CC(C)Oc1cccc(O[C@H]2CC[C@H](N)CC2)c1-c1cc(Nc2cnc(C#N)cn2)n[nH]1` [Example 1-18, 5-((5-(2-(((1r,4r)-4-aminocyclohexyl)oxy)-6-isopropoxyphenyl)-1H-pyrazol-3-yl)amino)pyrazine-2-carbonitrile] reads 100 to 500 nM.
The result for `COc1cccc(O[C@@H]2CCC[C@@H](N)C2)c1-c1cc(Nc2cnc(C#N)cn2)n[nH]1` [Example 1-64, 5-((5-(2-(((1R,3R)-3-aminocyclohexyl)oxy)-6-methoxyphenyl)-1H-pyrazol-3-yl)amino)pyrazine-2-carbonitrile] reads above 1000 nM.
Turning to `COc1cccc(OCC2CC2N)c1-c1cc(Nc2cnc(C#N)cn2)n[nH]1` (stereo not drawn) [Example 3-55, 5-((5-(2-((2-aminocyclopropyl)methoxy)-6-methoxyphenyl)-1H-pyrazol-3-yl)amino)pyrazine-2-carbonitrile], the IC50 was at most 10 nM.
With `N#Cc1cnc(Nc2cc(-c3c(OCC(F)(F)F)cccc3O[C@@H]3CC[C@H](N)C3)[nH]n2)cn1` [Example 1-25, 5-((5-(2-(((1R,3S)-3-aminocyclopentyl)oxy)-6-(2,2,2-trifluoroethoxy)phenyl)-1-pyrazol-3-yl)amino)pyrazine-2-carbonitrile], the IC50 is 500 to 1000 nM.
In turn, `N#Cc1cnc(Nc2cc(-c3c(F)cccc3O[C@@H]3CC[C@@H]3N)[nH]n2)cn1` [Example 3-32, 5-((5-(2-((1R,2S)-2-aminocyclobutoxy)-6-fluorophenyl)-1H-pyrazol-3-yl)amino)pyrazine-2-carbonitrile] yielded an IC50 of 10 to 100 nM.
The result for `COc1cccc(OC[C@H]2C[C@H](N)C2)c1-c1cc(Nc2cnc(C#N)cn2)n[nH]1` [Example 1-3] reads above 1000 nM.
The result for `N#Cc1cnc(Nc2cc(-c3c(OC4CCC4)cccc3O[C@H]3C[C@H](N)C3)[nH]n2)cn1` [Example 1-35, 5-((5-(2-((1r,3r)-3-aminocyclobutoxy)-6-cyclobutoxyphenyl)-1H-pyrazol-3-yl)amino)pyrazine-2-carbonitrile] reads 100 to 500 nM; that for `Cc1ccc(O[C@H]2CC[C@@H](N)C2)c(-c2cc(Nc3cnc(C#N)cn3)n[nH]2)n1` [Example 3-43, 5-((5-(3-(((1S,3R)-3-aminocyclopentyl)oxy)-6-methylpyridin-2-yl)-1H-pyrazol-3-yl)amino)pyrazine-2-carbonitrile], 100 to 500 nM; that for `N#Cc1cnc(Nc2cc(-c3c(F)cccc3OC3CC4(CC(N)C4)C3)[nH]n2)cn1` (stereo not drawn) [Example 3-41, 5-((5-(2-((6-aminospiro[3.3]heptan-2-yl)oxy)-6-fluorophenyl)-1H-pyrazol-3-yl)amino)pyrazine-2-carbonitrile], 100 to 500 nM.
Take `COc1cccc(O[C@@H]2CCCC[C@@H](N)C2)c1-c1cc(Nc2cnc(C#N)cn2)n[nH]1` [Example 3-6, 5-((5-(2-(((1R,3R)-3-aminocycloheptyl)oxy)-6-methoxyphenyl)-1H-pyrazol-3-yl)amino)pyrazine-2-carbonitrile]: the half-inhibitory concentration (IC50) is 100 to 500 nM.
`COc1cccc(OC[C@H]2C[C@@H](N)C2)c1-c1cc(Nc2cnc(C#N)cn2)n[nH]1` [Example 1-2, 5-((5-(2-(((1s,3s)-3-aminocyclobutyl)methoxy)-6-methoxyphenyl)-1H-pyrazol-3-yl)amino)pyrazine-2-carbonitrile] showed a 50% inhibitory concentration (IC50) above 1000 nM.
Next, `Cc1nc(-c2cc(Nc3cnc(C#N)cn3)n[nH]2)c(O[C@@H]2CC[C@H](N)C2)cc1Cl` [Example 3-52, 5-((5-(3-(((1R,3S)-3-aminocyclopentyl)oxy)-5-chloro-6-methylpyridin-2-yl)-1H-pyrazol-3-yl)amino)pyrazine-2-carbonitrile]: 100 to 500 nM.
For the compound `N#Cc1cnc(Nc2cc(-c3nc(C(F)F)ccc3O[C@@H]3CC[C@H](N)C3)[nH]n2)cn1` [Example 3-54, 5-((5-(3-(((1R,3S)-3-aminocyclopentyl)oxy)-6-(difluoromethyl)pyridin-2-yl)-1H-pyrazol-3-yl)amino)pyrazine-2-carbonitrile], the IC50 was at most 10 nM.
For `N#Cc1cnc(Nc2cc(-c3c(OCC4CC4)cccc3O[C@@H]3CC[C@H](N)C3)[nH]n2)cn1` [Example 1-33, 5-((5-(2-(((1R,3S)-3-aminocyclopentyl)oxy)-6-(cyclopropylmethoxy)phenyl)-1H-pyrazol-3-yl)amino)pyrazine-2-carbonitrile], the IC50 lay within 100 to 500 nM.
Compound `Cc1cc(Cl)c(O[C@@H]2CC[C@H](N)C2)c(-c2cc(Nc3cnc(C#N)cn3)n[nH]2)n1` [Example 3-53, 5-((5-(3-(((1R,3S)-3-aminocyclopentyl)oxy)-4-chloro-6-methylpyridin-2-yl)-1H-pyrazol-3-yl)amino)pyrazine-2-carbonitrile] displayed an IC50 above 1000 nM.
As for `N#Cc1cnc(Nc2cc(-c3c(F)cccc3O[C@@H]3CCC[C@@H]3N)[nH]n2)cn1` [Example 3-39, 5-((5-(2-(((1R,2S)-2-aminocyclopentyl)oxy)-6-fluorophenyl)-1H-pyrazol-3-yl)amino)pyrazine-2-carbonitrile], the IC50 was 100 to 500 nM.
The result for `N#Cc1cnc(Nc2cc(-c3c(F)cccc3O[C@H]3CC[C@H]3N)[nH]n2)cn1` [Example 3-34, 5-((5-(2-((1S,2R)-2-aminocyclobutoxy)-6-fluorophenyl)-1H-pyrazol-3-yl)amino)pyrazine-2-carbonitrile] reads above 1000 nM; that for `N#Cc1cnc(Nc2cc(-c3c(OC4CCC4)cccc3O[C@H]3CC[C@H](N)CC3)[nH]n2)cn1` [Example 1-34, 5-((5-(2-(((1r,4r)-4-aminocyclohexyl)oxy)-6-cyclobutoxyphenyl)-1H-pyrazol-3-yl)amino)pyrazine-2-carbonitrile], 100 to 500 nM.
Next, `N#Cc1cnc(Nc2cc(-c3c(F)cccc3O[C@H]3CC[C@@H]3N)[nH]n2)cn1` [Example 3-31, 5-((5-(2-((1S,2S)-2-aminocyclobutoxy)-6-fluorophenyl)-1H-pyrazol-3-yl)amino)pyrazine-2-carbonitrile]: 100 to 500 nM.
With `CN[C@@H]1CC[C@@H](Oc2ccc(Cl)c(F)c2-c2cc(Nc3cnc(C(N)=O)cn3)n[nH]2)C1` [Example 3-23, 5-((5-(3-chloro-2-fluoro-6-(((1R,3R)-3-(methylamino)cyclopentyl)oxy)phenyl)-1H-pyrazol-3-yl)amino)pyrazine-2-carboxamide], the IC50 was above 1000 nM.
For `COc1cccc(O[C@H]2CC[C@H]2N)c1-c1cc(Nc2cnc(C#N)cn2)n[nH]1` [Example 3-3, 5-((5-(2-((1S,2R)-2-aminocyclobutoxy)-6-methoxyphenyl)-1H-pyrazol-3-yl)amino)pyrazine-2-carbonitrile], the IC50 is 100 to 500 nM.
